Values after ≈ are worked out from the molar mass of the structure shown. Active and inactive are the calls of the source. The rule behind the calls is not given here.

The subject of one series is HeLa. In words: Cytotoxicity against human HeLa cells after 6 days by MTT method. Type of series: functional, cell-based. The conditions noted are these: 144 h. Background: Tetrazolium assays rely on reduction of a dye to a coloured formazan, in cell work by metabolically active cells.
Another series deals with MDA-MB-435. In words: Cytotoxicity against human MDA-MB-435 after 6 days by MTT method. The conditions noted are these: MDA-MB-435, 144 h. Type of series: functional, cell-based.
Another series relates to PC-3. Kind of series: Cytotoxicity against human PC3 cells after 6 days by MTT method. Type of series: functional, cell-based. The following applies: PC-3, 144 h.
A further series deals with Aspergillus niger. In words: Antimicrobial activity against Aspergillus niger ATCC 13496 at 50 ug/ml. Type of series: functional, organism-based.
A further series has as its system Staphylococcus aureus. Kind of series: Antimicrobial activity against Staphylococcus aureus ATCC 27154 at 50 ug/ml. It counts as functional, organism-based.
Another series relates to Escherichia coli. Kind of series: Antimicrobial activity against Escherichia coli ATCC 25922 at 50 ug/ml. It counts as functional, organism-based.
In the next series the test system is Sarcina ventriculi. Kind of series: Antimicrobial activity against Sarcina ventriculi ATCC 29068 at 50 ug/ml. It counts as functional.
The subject of a further series is HepG2. In words: Cytotoxicity against human HepG2 after 6 days by MTT method. It counts as functional, cell-based. The following applies: HepG2, 144 h.
The test system of another series is Candida albicans. In words: Antimicrobial activity against Candida albicans ATCC 10231 at 50 ug/ml. It counts as functional, organism-based.
A further series concerns Artemia salina. Kind of series: Toxicity in Artemia salina. It counts as organism-based. The following applies: in vivo.
The next series relates to MCF7. In words: Cytotoxicity against human MCF7 cells after 6 days by MTT method. Type of series: functional, cell-based. The following applies: MCF7, 144 h.
For a further series, the system named is Pseudomonas aeruginosa. In words: Antimicrobial activity against Pseudomonas aeruginosa ATCC 25668 at 50 ug/ml. Type of series: functional, organism-based.

As for `CC(=O)O[C@H]1CC[C@]23C[C@@H]1OO[C@]2(C)C(=O)CCC3(C)C` [TALAPEROXIDE A], the half-maximal inhibitory concentration (IC50) (commonly the point on the concentration scale where inhibition reaches its midpoint) with HeLa was found to be 13.7 µg/mL (≈ 46.2 µM); in the series on MDA-MB-435, 11.8 µg/mL (≈ 39.7 µM); in the series on PC-3 it was 5.7 µg/mL (≈ 19.2 µM); in the series on HepG2, 12.9 µg/mL (≈ 43.6 µM); in the series with MCF7, 19.8 µg/mL (≈ 66.7 µM). The result in the series with Aspergillus niger, in the series on Staphylococcus aureus, in the series with Escherichia coli, with Sarcina ventriculi, with Candida albicans and in the series with Pseudomonas aeruginosa was inactive. For the same compound, the LD50 in the series with Artemia salina is on record as less than 10 ppm.
Regarding `CC1(C)CCC(=O)[C@@]2(C)OO[C@H]3C[C@]12CCC3=O` [TALAPEROXIDE C], the IC50 in the series on HeLa stood at 12.7 µg/mL (≈ 50.4 µM); in the series with MDA-MB-435 it was 2.64 µg/mL (≈ 10.5 µM); in the series on PC-3, 4.34 µg/mL (≈ 17.2 µM); in the series with HepG2, 15.1 µg/mL (≈ 59.9 µM); with MCF7, 6.63 µg/mL (≈ 26.3 µM). Besides, the outcome in the series on Aspergillus niger, in the series with Staphylococcus aureus, in the series on Escherichia coli, in the series with Sarcina ventriculi, in the series on Candida albicans and in the series on Pseudomonas aeruginosa was inactive. Also, the LD50 in the series on Artemia salina was less than 10 ppm.
On to `CC1(C)CCC(=O)[C@]2(C)OO[C@H]3C[C@]12CCC3=O` [TALAPEROXIDE D], for which the concentration for half-maximal inhibition (IC50) in the series with HeLa is 1.31 µg/mL (≈ 5.19 µM); in the series on MDA-MB-435 it was 0.91 µg/mL (≈ 3.61 µM); with PC-3, 0.7 µg/mL (≈ 2.77 µM); in the series with HepG2, 0.9 µg/mL (≈ 3.57 µM); in the series on MCF7, 1.92 µg/mL (≈ 7.61 µM). Besides, the outcome in the series with Aspergillus niger, with Staphylococcus aureus, with Escherichia coli, in the series on Sarcina ventriculi, with Candida albicans and in the series with Pseudomonas aeruginosa was inactive. This compound displayed an LD50 in the series on Artemia salina of less than 10 ppm.
Turning to `CC1(C)CCC(=O)[C@@]2(C)OO[C@@H]3C[C@@]12CC[C@H]3O` [MERULIN A], the IC50 in the series with HeLa is 7.97 µg/mL (≈ 31.3 µM); with MDA-MB-435 it was 1.9 µg/mL (≈ 7.47 µM); in the series on PC-3, 1.82 µg/mL (≈ 7.16 µM); with HepG2, 6.79 µg/mL (≈ 26.7 µM); in the series with MCF7 it was 4.17 µg/mL (≈ 16.4 µM). The outcome with Aspergillus niger, with Staphylococcus aureus, in the series on Escherichia coli, in the series on Sarcina ventriculi, in the series on Candida albicans and in the series on Pseudomonas aeruginosa was inactive. Also, in the series with Artemia salina, the LD50 was less than 10 ppm.
Consider `CC(=O)O[C@H]1CC[C@]23C[C@@H]1OO[C@@]2(C)C(=O)CCC3(C)C` [TALAPEROXIDE B], for which the concentration for half-maximal inhibition (IC50) in the series on HeLa came to 1.73 µg/mL (≈ 5.84 µM); with MDA-MB-435, 2.78 µg/mL (≈ 9.38 µM); with PC-3, 0.89 µg/mL (≈ 3 µM); with HepG2 it was 1.29 µg/mL (≈ 4.35 µM); in the series with MCF7, 1.33 µg/mL (≈ 4.49 µM). Further, the outcome in the series on Aspergillus niger, with Staphylococcus aureus, in the series on Escherichia coli, in the series on Sarcina ventriculi, in the series with Candida albicans and in the series with Pseudomonas aeruginosa was inactive. The compound also displayed an LD50 with Artemia salina of less than 10 ppm.
On to `COc1cccc2c1C(=O)c1c(O)c3c(c(O)c1C2=O)C[C@@](O)(C(=O)CO)C[C@@H]3O[C@H]1C[C@H](N)[C@@H](O)[C@H](C)O1` [EPIRUBICIN], for which the IC50 in the series with MDA-MB-435 amounted to 0.33 µg/mL (≈ 0.607 µM); in the series on PC-3, 0.16 µg/mL (≈ 0.294 µM); in the series on HepG2, 0.56 µg/mL (≈ 1.03 µM); with MCF7, 0.56 µg/mL (≈ 1.03 µM).

For the origin of these results see ChEMBL document CHEMBL1781885, “Cytotoxic norsesquiterpene peroxides from the endophytic fungus Talaromyces flavus isolated from the mangrove plant Sonneratia apetala” (J Nat Prod, 2011).
